Among the data in patent US20050148627A1, “Benzopyran compounds for use in the treatment and prevention of inflammation related conditions” (priority 2003, published 2005) are melting point values, retold here.

Structures are written as SMILES.

In turn, `CCc1c(Cl)ccc2c1C=C(C(=O)O)C(C(F)(F)F)O2` (stereo not drawn) [Example 873, 6-Chloro-5-ethyl-2-(trifluoromethyl)-2H-chromene-3-carboxylic acid] yielded a melting point of 171.5 to 172.5 °C.
In the case of `O=C(O)C1=Cc2c(ccc(Cl)c2-c2ccccc2)OC1C(F)(F)F` (stereo not drawn) [Example 872, 6-Chloro-5-phenyl-2-(trifluoromethyl)-2H-chromene-3-carboxylic acid] it was 229 to 231 °C.
The value for `O=C(O)C1=Cc2c(ccc(Cl)c2-c2ccco2)OC1C(F)(F)F` (stereo not drawn) [Example 867, 6-Chloro-5-(2-furyl)-2-(trifluoromethyl)-2H-chromene-3-carboxylic acid] was 191 to 193 °C; that for `CC(F)(F)c1ccc2c(c1)C=C(C(=O)O)C(C(F)(F)F)O2` (stereo not drawn) [Example 34d, 6-(1,1-difluoroethyl)-2-(trifluoromethyl)-2H-chromene-3-carboxylic acid] was 156 to 158 °C (dec.); that for `CCc1ccc(Oc2cc3c(cc2Cl)C=C(C(=O)O)[C@H](C(F)(F)F)O3)cc1` (single isomer, unassigned) [Example 931] was 130 to 131 °C.
The value for `Cc1cccc(-c2c(Cl)ccc3c2C=C(C(=O)O)C(C(F)(F)F)O3)c1` (stereo not drawn) [Example 870, 6-Chloro-5-(3-methylphenyl)-2-(trifluoromethyl)-2H-chromene-3-carboxylic acid] was 222.5 to 224 °C; that for `CCCc1ccc(Oc2ccc3c(c2)OC(C(F)(F)F)C(C(=O)O)=C3)cc1` (stereo not drawn) [Example 713, 7-(4-Propylphenoxy)-2-(trifluoromethyl)-2H-chromene-3-carboxylic acid] was 143.5 to 146.5 °C.
`CC(C)c1cccc(-c2c(Cl)ccc3c2C=C(C(=O)O)C(C(F)(F)F)O3)c1` (stereo not drawn) [Example 871, 6-Chloro-5-(3-isopropylphenyl)-2-(trifluoromethyl)-2H-chromene-3-carboxylic acid] displayed a melting point of 184 to 186.5 °C.
In the case of `Nc1c(Cl)ccc2c1C=C(C(=O)O)C(C(F)(F)F)O2` (stereo not drawn) [Example 876, 5-Amino-6-chloro-2-(trifluoromethyl)-2H-chromene-3-carboxylic acid] it was 208.5 to 210 °C; in that of `O=C(O)C1=Cc2cc3occ(-c4ccc(Br)cc4)c3cc2OC1C(F)(F)F` (stereo not drawn) [Example 921, 3-(4-bromophenyl)-6-(trifluoromethyl)-6H-furo[2,3-g]chromene-7-carboxylic acid], greater than 250 °C.
As to `CCc1ccc(Oc2cc3c(cc2Cl)C=C(C(=O)O)[C@@H](C(F)(F)F)O3)cc1` (single isomer, unassigned) [Example 939], the melting point was 90 to 95 °C.
In the case of `O=C(O)C1=Cc2c(ccc3occ(-c4ccc(Br)cc4)c23)OC1C(F)(F)F` (stereo not drawn) [Example 922, 1-Para-bromophenyl-7-(trifluoromethyl)-7H-furo[3,2-f]chromene-8-carboxylic acid] it was greater than 250 °C.
